Measured values from the NIST ThermoML archive (doi:10.1016/j.jct.2006.10.017).
Numbers after ± are expanded uncertainties.

Experiments:
[1] = refractive index (Na D-line) (dimensionless); xn = mol fraction of the nth substance listed; conditions: 101 kPa, Liquid
[2] = xn = mol fraction of the nth substance listed; conditions: 101 kPa, Liquid

COS(=O)(=O)[O-].Cn1cc[n+](C)c1 [1,3-dimethylimidazolium methylsulfate] + CCO
Conditions	mass density, 293.15 K [kg/m3]	mass density, 298.15 K [kg/m3]	mass density, 303.15 K [kg/m3]	refractive index, 293.15 K	refractive index, 298.15 K	refractive index, 303.15 K	speed of sound, 293.15 K [m/s]	speed of sound, 298.15 K [m/s]	speed of sound, 303.15 K [m/s]
[1], x1 = 0.0738	–	–	–	1.3881 ± 0.0013	1.38734 ± 0.0013	1.38689 ± 0.0014	–	–	–
[1], x1 = 0.1356	–	–	–	1.40426 ± 0.0013	1.40398 ± 0.0013	1.40322 ± 0.0013	–	–	–
[1], x1 = 0.2275	–	–	–	1.42272 ± 0.0013	1.42173 ± 0.0013	1.42109 ± 0.0013	–	–	–
[1], x1 = 0.3317	–	–	–	1.43794 ± 0.0013	1.43648 ± 0.0013	1.4356 ± 0.0013	–	–	–
[1], x1 = 0.429	–	–	–	1.44915 ± 0.0013	1.44761 ± 0.0013	1.44677 ± 0.0013	–	–	–
[1], x1 = 0.5395	–	–	–	1.45944 ± 0.0013	1.45819 ± 0.0013	1.45699 ± 0.0013	–	–	–
[1], x1 = 0.6331	–	–	–	1.4665 ± 0.0013	1.4651 ± 0.0013	1.46385 ± 0.0013	–	–	–
[1], x1 = 0.7308	–	–	–	1.472 ± 0.0013	1.47068 ± 0.0013	1.4694 ± 0.0013	–	–	–
[1], x1 = 0.8142	–	–	–	1.47624 ± 0.0013	1.47489 ± 0.0013	1.47353 ± 0.0013	–	–	–
[1], x1 = 0.9081	–	–	–	1.48029 ± 0.0013	1.47895 ± 0.0013	1.47763 ± 0.0013	–	–	–
[1], x1 = 0.9512	–	–	–	1.48211 ± 0.0013	1.48079 ± 0.0013	1.47949 ± 0.0013	–	–	–
[1], x1 = 1	–	–	–	1.48392 ± 0.0013	1.4827 ± 0.0013	1.48129 ± 0.0013	–	–	–
[2], x1 = 0.0738	891.5 ± 0.7	887.4 ± 0.7	883.3 ± 0.7	–	–	–	1241 ± 10	1226 ± 10	1211 ± 10
[2], x1 = 0.1356	959.7 ± 0.5	955.7 ± 0.5	951.7 ± 0.5	–	–	–	1305 ± 11	1291 ± 11	1277 ± 10
[2], x1 = 0.2275	1040.6 ± 0.5	1036.7 ± 0.5	1032.8 ± 0.5	–	–	–	1396 ± 11	1383 ± 11	1370 ± 11
[2], x1 = 0.3317	1111.6 ± 0.8	1107.8 ± 0.8	1104 ± 0.7	–	–	–	1490 ± 12	1477 ± 12	1465 ± 12
[2], x1 = 0.429	1163.9 ± 1	1160.2 ± 1	1156.5 ± 1	–	–	–	1568 ± 12	1555 ± 12	1542 ± 12
[2], x1 = 0.5395	1211.1 ± 1.3	1207.5 ± 1.3	1203.8 ± 1.3	–	–	–	1642 ± 13	1629 ± 13	1617 ± 13
[2], x1 = 0.6331	1243.6 ± 1.6	1239.9 ± 1.6	1236.3 ± 1.5	–	–	–	1693 ± 13	1681 ± 13	1668 ± 13
[2], x1 = 0.7308	1272 ± 1.8	1268.4 ± 1.8	1264.8 ± 1.8	–	–	–	1737 ± 13	1725 ± 13	1713 ± 13
[2], x1 = 0.8142	1293 ± 2.1	1289.3 ± 2.1	1285.7 ± 2.1	–	–	–	1769 ± 14	1757 ± 13	1745 ± 13
[2], x1 = 0.9081	1313.3 ± 2.4	1309.7 ± 2.4	1306.1 ± 2.4	–	–	–	1800 ± 14	1787 ± 14	1775 ± 14
[2], x1 = 0.9512	1321.7 ± 2.5	1318.1 ± 2.5	1314.5 ± 2.5	–	–	–	1812 ± 14	1800 ± 14	1788 ± 14
[2], x1 = 1	1330.9 ± 2.7	1327.2 ± 2.7	1323.7 ± 2.7	–	–	–	1826 ± 14	1813 ± 14	1801 ± 14

CCO [ethanol] + CCCCCCn1cc[n+](C)c1.F[P-](F)(F)(F)(F)F
x2 = 0
Conditions	mass density, 293.15 K [kg/m3]	mass density, 298.15 K [kg/m3]	mass density, 303.15 K [kg/m3]	refractive index, 293.15 K	refractive index, 298.15 K	refractive index, 303.15 K	speed of sound, 293.15 K [m/s]	speed of sound, 298.15 K [m/s]	speed of sound, 303.15 K [m/s]
[1]	–	–	–	1.36138 ± 0.0013	1.35929 ± 0.0013	1.35725 ± 0.0013	–	–	–
[2]	789.3 ± 0.9	785.1 ± 0.9	780.7 ± 0.9	–	–	–	1160 ± 10	1143 ± 10	1127 ± 9

CCCCCCn1cc[n+](C)c1.F[P-](F)(F)(F)(F)F [1-hexyl-3-methylimidazolium hexafluorophosphate] + CCO
Conditions	mass density, [2] [kg/m3]	refractive index, [1]	speed of sound, [2] [m/s]
293.15 K, x1 = 0.0198	830 ± 0.9	1.36597 ± 0.0013	1164 ± 10
293.15 K, x1 = 0.2033	1055.6 ± 0.6	1.39358 ± 0.0013	1248 ± 10
293.15 K, x1 = 0.312	1125.6 ± 0.8	1.40092 ± 0.0013	1300 ± 11
293.15 K, x1 = 0.3897	1161.8 ± 1	1.40471 ± 0.0013	1329 ± 11
293.15 K, x1 = 0.5002	1201.4 ± 1.2	1.40893 ± 0.0013	1360 ± 11
293.15 K, x1 = 0.5982	1228.4 ± 1.5	1.41163 ± 0.0013	1380 ± 11
293.15 K, x1 = 0.6961	1250.2 ± 1.7	1.41394 ± 0.0013	1396 ± 11
293.15 K, x1 = 0.7902	1267.6 ± 1.9	1.41562 ± 0.0013	1410 ± 11
293.15 K, x1 = 0.9033	1285.2 ± 2.2	1.41784 ± 0.0013	1423 ± 11
293.15 K, x1 = 0.992	1297 ± 2.5	1.41884 ± 0.0013	1435 ± 12
293.15 K, x1 = 1	1297.9 ± 2.5	1.41923 ± 0.0013	1438 ± 12
298.15 K, x1 = 0.0198	825.8 ± 0.9	1.36482 ± 0.0013	1150 ± 10
298.15 K, x1 = 0.0465	873.5 ± 0.7	1.37109 ± 0.0013	1160 ± 10
298.15 K, x1 = 0.0991	948.7 ± 0.5	1.38024 ± 0.0013	1185 ± 10
298.15 K, x1 = 0.2033	1051.6 ± 0.5	1.3921 ± 0.0013	1237 ± 10
298.15 K, x1 = 0.312	1121.5 ± 0.8	1.39964 ± 0.0013	1288 ± 11
298.15 K, x1 = 0.3897	1157.7 ± 1	1.40388 ± 0.0013	1317 ± 11
298.15 K, x1 = 0.5002	1197.2 ± 1.2	1.4081 ± 0.0013	1348 ± 11
298.15 K, x1 = 0.5982	1224.4 ± 1.4	1.41098 ± 0.0013	1368 ± 11
298.15 K, x1 = 0.6961	1246.2 ± 1.7	1.41313 ± 0.0013	1384 ± 11
298.15 K, x1 = 0.7902	1263.5 ± 1.9	1.41472 ± 0.0013	1397 ± 11
298.15 K, x1 = 0.9033	1281.1 ± 2.2	1.41645 ± 0.0013	1410 ± 11
298.15 K, x1 = 0.992	1292.8 ± 2.5	1.41775 ± 0.0013	1421 ± 11
298.15 K, x1 = 1	1293.7 ± 2.5	1.41787 ± 0.0013	1424 ± 11
303.15 K, x1 = 0.0198	821.8 ± 0.9	1.36297 ± 0.0013	1134 ± 10
303.15 K, x1 = 0.0465	869.8 ± 0.7	1.36941 ± 0.0013	1144 ± 10
303.15 K, x1 = 0.0991	944.8 ± 0.5	1.3787 ± 0.0014	1169 ± 10
303.15 K, x1 = 0.2033	1047.5 ± 0.5	1.39057 ± 0.0014	1226 ± 10
303.15 K, x1 = 0.312	1117.3 ± 0.8	1.39816 ± 0.0013	1277 ± 10
303.15 K, x1 = 0.3897	1153.6 ± 0.9	1.40239 ± 0.0013	1306 ± 11
303.15 K, x1 = 0.5002	1193.3 ± 1.2	1.40693 ± 0.0013	1336 ± 11
303.15 K, x1 = 0.5982	1220.4 ± 1.4	1.40986 ± 0.0013	1357 ± 11
303.15 K, x1 = 0.6961	1242.2 ± 1.7	1.41197 ± 0.0013	1372 ± 11
303.15 K, x1 = 0.7902	1259.5 ± 1.9	1.41366 ± 0.0013	1386 ± 11
303.15 K, x1 = 0.9033	1277 ± 2.2	1.41525 ± 0.0013	1399 ± 11
303.15 K, x1 = 0.992	1288.7 ± 2.5	1.41635 ± 0.0013	1409 ± 11
303.15 K, x1 = 1	1289.6 ± 2.5	1.41643 ± 0.0013	1411 ± 11
